These results are taken from PubChem BioAssay AID1996.

Values after ≈ are worked out from the molar mass of the structure shown.

For the series the following is noted: buffer; pH 7.4; 200.0 µM.
As to `CC(NCc1cccc(S(=O)(=O)N(C)C)c1)c1ccc(F)cc1` (configuration not stated), the solubility (kinetic) was determined as 37.1 µg/mL (≈ 110 µM). Compound `O=C(Nc1ccc2c(c1)C(=O)OC2)c1ccc(Cl)cc1Cl` displayed a solubility (kinetic) of 3 µg/mL (≈ 9.31 µM). Compound `CC1CCN(C(C(=O)O)c2ccccc2)CC1.Cl` (configuration not stated) had a solubility (kinetic) of more than 40.5 µg/mL.

In turn, `Cc1ccc(NC(=O)CNc2cccc(Br)c2)cc1S(=O)(=O)N1CCOCC1` displayed a kinetic solubility of 14.3 µg/mL (≈ 30.5 µM). To `O=C(NCCc1c[nH]c2ccccc12)c1cc([N+](=O)[O-])cc([N+](=O)[O-])c1` belongs 15.2 µg/mL (≈ 42.9 µM).

In the case of `O=C(CCN1CCOCC1)Nc1ccc(F)cc1`, the solubility (kinetic) came out at 30.1 µg/mL (≈ 119 µM).

As for `COc1ccc(C(=O)O)cc1NCc1ccc(C)s1`, the kinetic solubility is more than 41.6 µg/mL. Take `O=C(Nc1ccc2c(c1)OCO2)C(=O)c1c[nH]c2ccccc12`: the solubility (kinetic) was determined as 0.7 µg/mL (≈ 2.27 µM). In turn, `O=S(=O)(Nc1cccc2ccccc12)c1ccccc1F` showed a solubility (kinetic) of 1.5 µg/mL (≈ 4.98 µM). `Cc1ccc(N(C(=O)Nc2ccccc2)C2=NCCC2)cc1` showed a solubility (kinetic) of 4.5 µg/mL (≈ 15.3 µM). In the case of `CCOc1ccc(NC(=O)C2CCCN(S(C)(=O)=O)C2)cc1` (configuration not stated), the solubility (kinetic) was found to be 4.1 µg/mL (≈ 12.6 µM). Compound `CNC(=O)c1ccc(NC(=O)CC23CC4CC(CC(C4)C2)C3)cc1` had a solubility (kinetic) of 13.8 µg/mL (≈ 42.3 µM). Turning to `S=C(NCc1cccs1)NCC1CCCO1` (configuration not stated), the solubility (kinetic) is more than 38.5 µg/mL. Regarding `CC1CCN(S(=O)(=O)c2ccccc2)CC1`, the solubility (kinetic) amounted to 25.8 µg/mL (≈ 108 µM). `O=C(NCCCn1ccnc1)c1cccc(Br)c1` displayed a kinetic solubility of 46.2 µg/mL (≈ 150 µM).

For `CN1CCN(Cc2c(F)cccc2Cl)CC1`, the solubility (kinetic) came to 24.2 µg/mL (≈ 99.7 µM).

`NC1=NC(=O)/C(=C/C=C/c2cccs2)S1` came in with a kinetic solubility of 5.9 µg/mL (≈ 25 µM).

In turn, `O=S(=O)(NCc1cn2ccccc2n1)c1ccccc1F` had a solubility (kinetic) of more than 45.8 µg/mL.

In turn, `COc1ccc(C(=O)NCc2ccc(C(=O)O)o2)cc1` displayed a solubility (kinetic) of more than 41.3 µg/mL. `Cc1cccc(N=Cc2c(O)n(C)c(=O)n(C)c2=O)c1`: the solubility (kinetic) is 10 µg/mL (≈ 36.6 µM). As for `Cc1cnc(C(=O)OCC(=O)c2cccc3ccccc23)cn1`, the kinetic solubility was 36.1 µg/mL (≈ 118 µM).

`CC(=O)Nc1nc(C)c(C(C)(C)C)s1` yielded a solubility (kinetic) of more than 31.8 µg/mL. On to `CC(C)CCn1c2ccccc2c2cc(CC(N)=O)ccc21`, for which the kinetic solubility was found to be 0.4 µg/mL (≈ 1.36 µM). On to `CC(=O)C1=C(c2ccccc2)NC(=O)NC1c1cccs1` (configuration not stated), for which the solubility (kinetic) worked out at 28.2 µg/mL (≈ 94.5 µM). On to `O=Nc1ccc(O)c2ncccc12`, for which the kinetic solubility is more than 26.1 µg/mL. As to `CCc1ccccc1NC(=O)CCOc1ccccc1`, the solubility (kinetic) is 39 µg/mL (≈ 145 µM). The compound `CSc1nsc(SCC(=O)NCc2ccccc2)n1` had a solubility (kinetic) of 46.7 µg/mL (≈ 150 µM). For `O=C(O)CCC(=O)Nc1ccc(Br)cc1C(=O)c1ccc(Cl)cc1`, the solubility (kinetic) was 44.9 µg/mL (≈ 109 µM).

Compound `Cc1ccc(S(=O)(=O)CCC(=O)N2CCN(c3ccccc3O)CC2)cc1` showed a solubility (kinetic) of 35.9 µg/mL (≈ 92.4 µM).

Compound `O=[N+]([O-])c1ccc(C[n+]2cccc3ccccc32)cc1.[Cl-]` showed a solubility (kinetic) of 41 µg/mL. To `CCOC(=O)c1c(C=O)c2ccccc2n1Cc1ccccc1F` belongs less than 0.7 µg/mL; to `OCCN1CNC(=S)NC1`, 22.8 µg/mL (≈ 141 µM). The compound `COC(=O)N1CCN(c2ccc(C)cc2)C(C)C1` (configuration not stated) came in with a solubility (kinetic) of more than 37.2 µg/mL. In the case of `CNC(=S)N1CCn2cccc2C1c1cc(OC)c(OC)c(OC)c1` (configuration not stated), the kinetic solubility is more than 54.2 µg/mL. Take `Cc1csc2c(=O)sc(NC(=O)c3ccco3)nc12`: the solubility (kinetic) amounted to 4.5 µg/mL (≈ 15.4 µM).

`CCN(c1ccccc1)S(=O)(=O)c1cc(NC(=O)C2CC2)ccc1Cl` gave a solubility (kinetic) of 26.2 µg/mL (≈ 69.2 µM). `CC(=O)Nc1nc2ccccc2[nH]1` gave a kinetic solubility of 15.1 µg/mL (≈ 86.2 µM). For the compound `Cc1ccc(-c2csc(NC(=O)CN3CCOCC3)n2)cc1`, the solubility (kinetic) is more than 47.6 µg/mL. `COC(=O)c1ccc(C(=O)Nc2nc3cc(N)c(C)cc3s2)cc1`: the kinetic solubility is less than 0.2 µg/mL. For the compound `Cc1ncc2c(n1)-c1cc(F)ccc1SC2`, the solubility (kinetic) was 28.9 µg/mL (≈ 124 µM). `COc1ccc(C(=O)NCCNC(=O)c2cnccn2)cc1` had a solubility (kinetic) of 37.1 µg/mL (≈ 124 µM). As for `Cc1ccc2cc(NC(=O)c3ccccc3C)ccc2n1`, the figure is 37.4 µg/mL (≈ 135 µM); as for `CNC(=O)c1cc2c(cn1)[nH]c1ccccc12`, 27.5 µg/mL (≈ 122 µM); as for `O=C(Nc1cc2c(cc1Br)OCCO2)c1cccnc1`, more than 50.3 µg/mL. Consider `CC(C)(CNc1ccc(C(F)(F)F)cc1[N+](=O)[O-])N1CCOCC1`, for which the kinetic solubility turned out to be 5.5 µg/mL (≈ 15.8 µM). In turn, `O=C(CSc1nc2ncc(Cl)cc2[nH]1)c1ccc2c(c1)OCO2` came in with a kinetic solubility of 1.8 µg/mL (≈ 5.18 µM). To `Cn1c(CNC(=O)C2CCCCC2)cc2cc(Cl)ccc21` belongs less than 0.3 µg/mL; to `Cc1cccc(NC(=O)c2ccc3c(c2)OCCO3)c1C`, 22.1 µg/mL (≈ 78 µM); to `COC(=O)c1ccc(CO/N=C/c2ccc(OC)cc2OC)cc1`, less than 0.7 µg/mL.

For the compound `Cc1ccc(-c2nc(=O)[nH]c3ccccc23)cc1`, the solubility (kinetic) was found to be 25.8 µg/mL (≈ 109 µM). In turn, `COc1cc(/C=C(\C#N)C(=O)N2CCCCC2)ccc1O` showed a solubility (kinetic) of more than 42.9 µg/mL. The compound `O=C(NCC1CCCCC1)c1cccnc1Cl` returned a solubility (kinetic) of 31.7 µg/mL (≈ 125 µM). In turn, `O=C(COC(=O)c1cncc(Br)c1)NC12CC3CC(CC(C3)C1)C2` showed a kinetic solubility of 1.4 µg/mL (≈ 3.56 µM). Compound `CC(=O)c1sc(NC(=O)Cc2c(F)cccc2Cl)nc1C` displayed a solubility (kinetic) of 8.2 µg/mL (≈ 25.1 µM). To `COc1cccc(C(=O)Nc2cc(C)on2)c1OC` belongs 34 µg/mL (≈ 130 µM). In turn, `COc1cc2c(cc1OC)C(C)N(S(=O)(=O)c1cccs1)CC2` (configuration not stated) registered a solubility (kinetic) of 41.1 µg/mL (≈ 116 µM).

Regarding `Cc1nn(-c2ccccc2)c(C)c1CN`, the solubility (kinetic) is more than 30.2 µg/mL.

On to `O=C(c1ccc2c(c1)OCO2)N1CCC(Cc2ccccc2)CC1`, for which the solubility (kinetic) worked out at 41.6 µg/mL (≈ 129 µM).

In turn, `CCN(CC(=O)Nc1ccc2c(c1)OCCO2)C(=O)c1ccccc1Br` displayed a kinetic solubility of more than 62.9 µg/mL. As for `O=C(COC(=O)c1c(Cl)ccc(Cl)c1Cl)NCC1CCCO1` (configuration not stated), the figure is more than 55 µg/mL; as for `CCN(CC(=O)Nc1cccc(OC)c1)C(=O)c1ccncc1`, 37.2 µg/mL (≈ 119 µM).

Consider `O=C(CN1C(=O)NC2(CCOc3ccccc32)C1=O)NCCc1ccc(F)cc1` (configuration not stated), for which the kinetic solubility was more than 59.6 µg/mL. As for `c1cc(CCCc2ccncc2)ccn1`, the figure is more than 29.7 µg/mL; as for `Cc1nn(C)c(C)c1/C=C(/C(=O)C(C)C)n1cncn1`, more than 41 µg/mL.

In turn, `Cc1cc(N2CCCCC2C)nc(-c2ccccc2O)n1` (configuration not stated) yielded a kinetic solubility of 0.5 µg/mL (≈ 1.76 µM). Compound `Fc1ccc(C2CCCN2Cc2nc(Cc3ccccc3F)no2)cc1` (configuration not stated) yielded a kinetic solubility of 11.6 µg/mL (≈ 32.6 µM). As for `Cc1ncoc1C(=O)Nc1ncc([N+](=O)[O-])s1`, the figure is more than 38.1 µg/mL. As for `Cc1ccccc1NC(=O)c1ccccc1N(C)S(=O)(=O)c1ccccc1`, the figure is 46.3 µg/mL (≈ 122 µM); as for `O=C(CCC(=O)N1CCCC1)Nc1ccc([N+](=O)[O-])cc1`, 41.3 µg/mL (≈ 142 µM); as for `O=C(O)C(NS(=O)(=O)c1cccc2nsnc12)c1ccccc1` (configuration not stated), 48.4 µg/mL (≈ 139 µM). In turn, `CCc1ccc(Nc2nc(C)cc(C)c2C(N)=O)cc1` gave a solubility (kinetic) of more than 40.4 µg/mL. `CCOC(=O)c1c(O)c2cc(Cl)ccc2n(CC)c1=O` gave a kinetic solubility of more than 44.4 µg/mL.

Take `COc1ccc(NC(=O)Nc2ccc([N+](=O)[O-])cc2)cn1`: the solubility (kinetic) was 0.9 µg/mL (≈ 3.12 µM). In the case of `O=C(O)c1cc2c(cn1)[nH]c1ccccc12`, the solubility (kinetic) is more than 31.8 µg/mL. For `COCC(=O)Nc1c(C(=O)N2CCCC2)oc2ccccc12`, the solubility (kinetic) is 40.4 µg/mL (≈ 134 µM).

In the case of `CC(=O)c1sc(NCc2ccccc2)nc1C`, the kinetic solubility is 31.8 µg/mL (≈ 129 µM). The compound `CN(Cc1ccccc1)c1ncnc2sccc12` showed a kinetic solubility of 32.4 µg/mL (≈ 127 µM).

The solubility (kinetic) is solubility judged after dilution from a stock solution rather than from solid.
